Values of other authors in patent US11433083B2, “High-strength testosterone undecanoate compositions” (priority 2010, dated 2022).

## CCCCCCCCCCC(=O)O[C@H]1CC[C@H]2[C@@H]3CCC4=CC(=O)CC[C@]4(C)[C@H]3CC[C@]12C [Testosterone undecanoate, testosterone undecanoate]
  water solubility: < 0.3 ng/mL
